Results on four compounds are retold here after ChEMBL document CHEMBL1201862, “PubChem BioAssay data set” (2004).

For orientation: EC50 means the concentration giving half of the maximal effect. By AC50 is commonly meant the concentration giving half of the maximal activity seen. As usually defined, the Ki is a measure of affinity in units of concentration, obtained from inhibition or displacement.

Activity calls are given as the source filed them. A value given as a limit tells only on which side of the number the result lay.

Experiment [1] can be described thus: NIH-3T3 fibroblast cytotoxicity, dose response, cytotoxicity control, cell-based, fluorescence, Alamar Blue, secondary assay (AID 2327).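 Note: NIH-3T3 mouse fibroblasts cultured with fluconazole at 8 µg/mL.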 It is filed as functional. (Alamar Blue is a resazurin reagent that responds to reducing activity.)
Experiment [2] concerns the target Heat shock protein HSP 90-alpha (Homo sapiens, UniProt P07900). Format: functional, organism-based.
Experiment [3] in a line: Shn3 3'UTR reporter inhibitors, dose response, cell-based, Clone20 osteoblasts, firefly luciferase, cherry-picked (AID 624132).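 Note: firefly luciferase luminescence from reporter carrying the Shn3 3'UTR in osteoblasts.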 It is filed as functional.
For experiment [4], the target named is Dual specificity protein kinase CLK2 (Homo sapiens, UniProt P49760). It is filed as functional.
In experiment [5] the target is Tyrosine-protein kinase JAK2 (Homo sapiens, UniProt O60674). It is filed as functional.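 Note: JAK2 tested as one member of a kinase panel.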
In experiment [6] the target is Serine/threonine-protein kinase TBK1 (Homo sapiens, UniProt Q9UHD2). In words: Navigating the Kinome. Panel member name: TBK1. It is filed as functional.
The target of experiment [7] is 5'-AMP-activated protein kinase catalytic subunit alpha-1 (Homo sapiens, UniProt Q13131). Format: functional.
Experiment [8] deals with ALK tyrosine kinase receptor (Homo sapiens, UniProt Q9UM73). Format: functional.
Experiment [9] addresses T1, Tyrosine-protein kinase receptor TYRO3 (Homo sapiens, UniProt Q06418).
T1 sequence (Q06418 whole entry): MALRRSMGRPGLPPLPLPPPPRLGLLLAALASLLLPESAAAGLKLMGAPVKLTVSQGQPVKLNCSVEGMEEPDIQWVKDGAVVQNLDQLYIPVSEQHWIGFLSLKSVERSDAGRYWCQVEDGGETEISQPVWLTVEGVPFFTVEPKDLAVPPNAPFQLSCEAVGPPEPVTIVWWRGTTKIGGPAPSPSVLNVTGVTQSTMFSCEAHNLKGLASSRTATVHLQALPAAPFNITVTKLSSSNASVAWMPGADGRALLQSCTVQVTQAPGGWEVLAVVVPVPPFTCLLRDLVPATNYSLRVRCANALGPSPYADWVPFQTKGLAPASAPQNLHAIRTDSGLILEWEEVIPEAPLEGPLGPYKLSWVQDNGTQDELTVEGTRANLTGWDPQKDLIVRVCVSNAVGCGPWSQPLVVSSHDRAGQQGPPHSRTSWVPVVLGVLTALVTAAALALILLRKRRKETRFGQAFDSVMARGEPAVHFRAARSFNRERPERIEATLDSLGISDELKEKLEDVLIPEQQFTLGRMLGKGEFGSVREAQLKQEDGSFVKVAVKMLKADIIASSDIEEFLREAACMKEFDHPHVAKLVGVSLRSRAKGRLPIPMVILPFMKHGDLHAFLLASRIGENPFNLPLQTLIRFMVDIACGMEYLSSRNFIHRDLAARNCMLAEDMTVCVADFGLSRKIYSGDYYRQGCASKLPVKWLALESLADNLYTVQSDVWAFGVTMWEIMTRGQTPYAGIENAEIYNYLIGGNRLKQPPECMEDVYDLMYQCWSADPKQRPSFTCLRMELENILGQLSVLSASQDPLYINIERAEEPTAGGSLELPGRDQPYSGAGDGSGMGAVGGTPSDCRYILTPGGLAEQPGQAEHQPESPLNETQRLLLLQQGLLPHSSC
It is filed as functional.

The target of experiment [10] is Tyrosine-protein kinase Lck (Homo sapiens, UniProt P06239). It is filed as functional.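 Note: lck was assayed as one member of a kinase panel.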
Experiment [11] deals with Death-associated protein kinase 3 (Homo sapiens, UniProt O43293). Format: functional.
In experiment [12] the target is Mitogen-activated protein kinase 8 (Homo sapiens, UniProt P45983). Format: functional.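 Note: value comes from one member of a kinome-wide kinase profiling panel.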
A further experiment has as its target T2, Aurora kinase A (Homo sapiens, UniProt O14965).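 Note: value from the Navigating the Kinome kinase panel profiling, panel entry STK6.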
T2 sequence (O14965 whole entry): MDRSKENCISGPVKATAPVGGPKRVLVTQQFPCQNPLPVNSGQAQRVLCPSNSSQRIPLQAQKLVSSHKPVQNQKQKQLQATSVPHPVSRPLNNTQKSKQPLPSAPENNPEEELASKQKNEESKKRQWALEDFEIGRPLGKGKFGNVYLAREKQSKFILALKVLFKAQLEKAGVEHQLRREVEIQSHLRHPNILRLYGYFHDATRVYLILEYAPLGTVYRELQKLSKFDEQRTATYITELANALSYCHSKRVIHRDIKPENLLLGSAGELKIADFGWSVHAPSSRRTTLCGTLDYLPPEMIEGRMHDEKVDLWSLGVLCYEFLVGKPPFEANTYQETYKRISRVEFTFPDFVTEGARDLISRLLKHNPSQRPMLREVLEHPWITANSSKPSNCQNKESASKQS
Format: functional.

Experiment [13] concerns the target Tyrosine-protein kinase JAK3 (Homo sapiens, UniProt P52333). Format: functional.
Experiment [14] concerns the target Mitogen-activated protein kinase 9 (Homo sapiens, UniProt P45984). Format: functional.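 Note: value from a kinome panel profiling assay, MAPK9 panel entry.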
In the next experiment the target is Activated CDC42 kinase 1 (Homo sapiens, UniProt Q07912). The experiment is described as follows: Navigating the Kinome. Panel member name: ACK1. It is filed as functional.
The target of experiment [15] is Receptor-type tyrosine-protein kinase FLT3 (Homo sapiens, UniProt P36888). It is filed as functional.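 Note: FLT3 was tested as one member of a kinome-wide kinase panel.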
Experiment [16] has as its target Tyrosine-protein kinase ABL1 (Homo sapiens, UniProt P00519). Format: functional.
Experiment [17] addresses Cyclin-dependent kinase 5 (Homo sapiens, UniProt Q00535). Format: functional.
For experiment [18], the target named is Insulin-like growth factor 1 receptor (Homo sapiens, UniProt P08069). The experiment is described as follows: Navigating the Kinome. Panel member name: IGF1R. It is filed as functional.
Experiment [19] concerns the target Platelet-derived growth factor receptor alpha (Homo sapiens, UniProt P16234). The experiment is described as follows: Navigating the Kinome. Panel member name: PDGFRA. It is filed as functional.
The target of experiment [20] is Leucine-rich repeat serine/threonine-protein kinase 2 (Homo sapiens, UniProt Q5S007). Format: functional.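 Note: value from a broad kinome-wide panel profiling study in which LRRK2 was one of the kinases tested.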
The target of a further experiment is Aurora kinase B (Homo sapiens, UniProt Q96GD4). It is filed as functional.
Experiment [21] deals with Cyclin-dependent kinase 8 (Homo sapiens, UniProt P49336). In words: Navigating the Kinome. Panel member name: CDK8. It is filed as functional.
Experiment [22] addresses cAMP-dependent protein kinase catalytic subunit alpha (Homo sapiens, UniProt P17612). It is filed as functional.
Experiment [23] concerns the target Dual specificity protein kinase CLK4 (Homo sapiens, UniProt Q9HAZ1). It is filed as functional.
In experiment [24] the target is Macrophage colony-stimulating factor 1 receptor (Homo sapiens, UniProt P07333). Format: functional.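 Note: value comes from the Navigating the Kinome screening panel, CSF1R member.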
The target in experiment [25] is Inhibitor of nuclear factor kappa-B kinase subunit epsilon (Homo sapiens, UniProt Q14164). The experiment is described as follows: Navigating the Kinome. Panel member name: IKBKE. Format: functional.
Experiment [26] has as its target Calcium/calmodulin-dependent protein kinase type II subunit alpha (Homo sapiens, UniProt Q9UQM7). In words: Navigating the Kinome. Panel member name: CAMK2A. Format: functional.

Sequence of Cyclin-dependent kinase 8 (P49336 whole entry): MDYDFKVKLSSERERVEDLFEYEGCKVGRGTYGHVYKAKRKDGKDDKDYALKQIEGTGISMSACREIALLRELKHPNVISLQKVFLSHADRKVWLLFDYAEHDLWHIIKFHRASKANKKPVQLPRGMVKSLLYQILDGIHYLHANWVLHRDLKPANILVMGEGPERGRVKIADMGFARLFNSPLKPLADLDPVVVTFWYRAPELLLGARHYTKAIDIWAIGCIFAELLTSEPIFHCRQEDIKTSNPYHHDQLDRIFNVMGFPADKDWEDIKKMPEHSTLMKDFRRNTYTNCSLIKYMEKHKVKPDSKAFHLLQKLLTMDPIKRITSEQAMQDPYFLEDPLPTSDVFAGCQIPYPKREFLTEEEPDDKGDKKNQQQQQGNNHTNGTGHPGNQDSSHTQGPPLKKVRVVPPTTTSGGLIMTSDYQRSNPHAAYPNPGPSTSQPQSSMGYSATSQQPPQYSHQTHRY
Sequence of Tyrosine-protein kinase JAK2 (O60674 whole entry): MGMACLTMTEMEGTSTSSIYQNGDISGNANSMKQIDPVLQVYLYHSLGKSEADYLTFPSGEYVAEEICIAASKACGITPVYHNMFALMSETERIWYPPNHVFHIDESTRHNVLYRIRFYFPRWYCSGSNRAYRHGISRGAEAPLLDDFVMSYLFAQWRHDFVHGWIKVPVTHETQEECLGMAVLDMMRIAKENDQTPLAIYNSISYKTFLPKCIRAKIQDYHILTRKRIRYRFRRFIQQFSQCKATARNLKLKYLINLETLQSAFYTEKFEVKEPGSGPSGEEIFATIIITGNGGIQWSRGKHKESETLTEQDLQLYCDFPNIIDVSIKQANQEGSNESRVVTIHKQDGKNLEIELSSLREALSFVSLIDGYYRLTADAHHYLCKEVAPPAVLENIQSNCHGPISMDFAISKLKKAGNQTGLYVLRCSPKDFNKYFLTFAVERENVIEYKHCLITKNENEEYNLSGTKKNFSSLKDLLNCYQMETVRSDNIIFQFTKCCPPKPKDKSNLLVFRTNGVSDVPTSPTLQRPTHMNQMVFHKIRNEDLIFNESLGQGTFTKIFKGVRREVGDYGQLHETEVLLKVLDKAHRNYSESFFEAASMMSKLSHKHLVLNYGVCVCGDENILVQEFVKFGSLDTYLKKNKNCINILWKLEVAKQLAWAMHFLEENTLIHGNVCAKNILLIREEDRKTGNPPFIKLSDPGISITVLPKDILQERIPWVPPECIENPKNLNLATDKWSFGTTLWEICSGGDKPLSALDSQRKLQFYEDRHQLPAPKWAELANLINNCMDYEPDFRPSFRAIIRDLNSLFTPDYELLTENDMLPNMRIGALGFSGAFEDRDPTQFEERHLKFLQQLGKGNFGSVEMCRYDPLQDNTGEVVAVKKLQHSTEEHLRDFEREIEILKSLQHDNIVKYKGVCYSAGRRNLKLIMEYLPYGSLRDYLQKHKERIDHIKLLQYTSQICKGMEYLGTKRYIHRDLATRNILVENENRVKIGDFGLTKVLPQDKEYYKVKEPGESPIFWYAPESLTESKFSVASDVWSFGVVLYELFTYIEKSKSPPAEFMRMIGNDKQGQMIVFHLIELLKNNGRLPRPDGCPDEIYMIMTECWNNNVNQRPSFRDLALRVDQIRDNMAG
Sequence of Tyrosine-protein kinase JAK3 (P52333 whole entry): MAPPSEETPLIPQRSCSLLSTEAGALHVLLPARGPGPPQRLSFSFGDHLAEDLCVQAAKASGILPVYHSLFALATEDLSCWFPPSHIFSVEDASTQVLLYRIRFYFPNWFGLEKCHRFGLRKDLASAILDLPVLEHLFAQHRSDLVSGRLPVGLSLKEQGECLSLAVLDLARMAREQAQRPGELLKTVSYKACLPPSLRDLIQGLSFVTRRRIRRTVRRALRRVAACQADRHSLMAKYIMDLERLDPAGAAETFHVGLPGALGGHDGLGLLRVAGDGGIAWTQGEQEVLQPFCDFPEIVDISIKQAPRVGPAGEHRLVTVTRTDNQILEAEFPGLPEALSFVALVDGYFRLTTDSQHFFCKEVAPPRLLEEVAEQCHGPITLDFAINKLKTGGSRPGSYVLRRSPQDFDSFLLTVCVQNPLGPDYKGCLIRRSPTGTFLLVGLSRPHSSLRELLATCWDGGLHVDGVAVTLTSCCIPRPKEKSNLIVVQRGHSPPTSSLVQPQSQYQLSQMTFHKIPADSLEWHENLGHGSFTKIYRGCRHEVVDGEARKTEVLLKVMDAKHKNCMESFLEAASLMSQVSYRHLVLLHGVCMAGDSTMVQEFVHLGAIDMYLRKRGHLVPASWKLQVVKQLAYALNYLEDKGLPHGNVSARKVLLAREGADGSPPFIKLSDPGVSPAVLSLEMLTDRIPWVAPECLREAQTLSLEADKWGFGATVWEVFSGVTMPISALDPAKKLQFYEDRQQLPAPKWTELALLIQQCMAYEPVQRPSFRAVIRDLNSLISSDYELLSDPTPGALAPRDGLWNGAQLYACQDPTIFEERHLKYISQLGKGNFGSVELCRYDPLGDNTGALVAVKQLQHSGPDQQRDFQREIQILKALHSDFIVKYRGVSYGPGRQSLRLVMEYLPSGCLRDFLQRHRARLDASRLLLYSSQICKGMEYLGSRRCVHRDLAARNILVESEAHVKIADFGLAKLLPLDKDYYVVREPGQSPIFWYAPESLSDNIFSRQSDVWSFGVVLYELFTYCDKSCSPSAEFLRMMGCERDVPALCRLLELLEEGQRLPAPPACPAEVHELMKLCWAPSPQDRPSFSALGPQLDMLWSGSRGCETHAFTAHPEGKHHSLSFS
Sequence of Macrophage colony-stimulating factor 1 receptor (P07333 whole entry): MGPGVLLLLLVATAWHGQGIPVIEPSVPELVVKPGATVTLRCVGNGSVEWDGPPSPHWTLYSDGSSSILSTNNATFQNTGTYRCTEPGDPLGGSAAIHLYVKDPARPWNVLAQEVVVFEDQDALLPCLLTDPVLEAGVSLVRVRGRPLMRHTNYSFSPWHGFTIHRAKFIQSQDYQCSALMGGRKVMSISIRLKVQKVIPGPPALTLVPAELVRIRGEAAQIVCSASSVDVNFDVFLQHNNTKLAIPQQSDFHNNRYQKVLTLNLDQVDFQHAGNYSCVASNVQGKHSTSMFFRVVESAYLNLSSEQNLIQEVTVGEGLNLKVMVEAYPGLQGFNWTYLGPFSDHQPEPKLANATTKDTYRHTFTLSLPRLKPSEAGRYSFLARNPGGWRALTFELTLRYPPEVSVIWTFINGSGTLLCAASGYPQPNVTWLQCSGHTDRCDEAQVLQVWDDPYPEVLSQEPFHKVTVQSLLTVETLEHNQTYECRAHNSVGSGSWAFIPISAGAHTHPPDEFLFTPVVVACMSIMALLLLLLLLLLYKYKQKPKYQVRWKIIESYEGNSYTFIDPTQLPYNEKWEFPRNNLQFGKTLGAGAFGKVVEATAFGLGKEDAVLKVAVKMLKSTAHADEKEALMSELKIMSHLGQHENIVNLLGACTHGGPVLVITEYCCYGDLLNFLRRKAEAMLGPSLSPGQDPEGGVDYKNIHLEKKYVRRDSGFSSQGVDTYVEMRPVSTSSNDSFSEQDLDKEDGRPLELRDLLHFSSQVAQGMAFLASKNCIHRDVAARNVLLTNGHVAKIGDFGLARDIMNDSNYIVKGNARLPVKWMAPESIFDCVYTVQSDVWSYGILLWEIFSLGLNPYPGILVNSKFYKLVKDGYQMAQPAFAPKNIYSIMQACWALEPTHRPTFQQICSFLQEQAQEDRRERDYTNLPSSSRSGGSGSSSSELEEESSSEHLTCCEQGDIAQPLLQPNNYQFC
Sequence of Dual specificity protein kinase CLK2 (P49760 whole entry): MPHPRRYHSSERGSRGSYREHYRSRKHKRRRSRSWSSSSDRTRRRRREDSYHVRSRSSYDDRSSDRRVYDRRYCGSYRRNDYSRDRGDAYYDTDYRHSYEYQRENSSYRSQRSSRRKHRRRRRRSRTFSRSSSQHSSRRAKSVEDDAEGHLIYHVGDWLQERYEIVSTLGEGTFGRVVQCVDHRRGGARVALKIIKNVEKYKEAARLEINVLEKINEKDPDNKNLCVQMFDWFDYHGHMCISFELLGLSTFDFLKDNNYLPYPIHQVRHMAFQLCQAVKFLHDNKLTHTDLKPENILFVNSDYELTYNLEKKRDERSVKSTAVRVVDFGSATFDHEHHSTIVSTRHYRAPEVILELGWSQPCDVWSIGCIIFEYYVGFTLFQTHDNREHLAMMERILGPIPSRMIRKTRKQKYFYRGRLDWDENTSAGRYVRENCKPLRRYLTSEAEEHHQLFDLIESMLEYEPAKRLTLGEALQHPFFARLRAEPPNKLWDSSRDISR
Sequence of Calcium/calmodulin-dependent protein kinase type II subunit alpha (Q9UQM7 whole entry): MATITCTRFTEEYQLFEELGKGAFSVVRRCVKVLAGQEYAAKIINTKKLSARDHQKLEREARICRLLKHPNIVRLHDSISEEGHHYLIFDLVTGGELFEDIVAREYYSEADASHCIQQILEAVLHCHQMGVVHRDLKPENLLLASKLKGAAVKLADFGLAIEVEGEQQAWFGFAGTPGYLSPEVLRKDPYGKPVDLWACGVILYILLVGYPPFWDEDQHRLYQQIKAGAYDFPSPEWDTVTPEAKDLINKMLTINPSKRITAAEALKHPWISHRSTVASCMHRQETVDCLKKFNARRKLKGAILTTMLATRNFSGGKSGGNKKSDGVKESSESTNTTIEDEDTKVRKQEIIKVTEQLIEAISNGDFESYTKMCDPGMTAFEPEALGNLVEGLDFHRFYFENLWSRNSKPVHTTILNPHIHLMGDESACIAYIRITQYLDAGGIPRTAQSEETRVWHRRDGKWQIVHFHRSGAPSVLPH
Sequence of Cyclin-dependent kinase 5 (Q00535 whole entry): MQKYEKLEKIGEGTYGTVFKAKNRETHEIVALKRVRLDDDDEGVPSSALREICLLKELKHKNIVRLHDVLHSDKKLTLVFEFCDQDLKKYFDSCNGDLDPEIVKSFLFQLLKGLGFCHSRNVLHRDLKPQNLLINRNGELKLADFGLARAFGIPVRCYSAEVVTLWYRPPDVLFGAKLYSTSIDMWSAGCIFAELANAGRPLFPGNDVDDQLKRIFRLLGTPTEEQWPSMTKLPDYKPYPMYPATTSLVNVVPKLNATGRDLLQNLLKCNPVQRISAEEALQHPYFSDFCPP

Consider `Cc1ccc(C(=O)OCn2ncc(Cl)c(Cl)c2=O)cc1`, for which the EC50 in experiment [1] is 3.07 µM (inconclusive). Further, the AC50 in experiment [2] was 4.28 µM (active); in experiment [3] it was 5.07 µM (active).
With `O=C(Nc1cccc(C2Nc3ccc4ccccc4c3C3C=CCC32)c1)c1ccc(F)cc1` (stereo not drawn), the Ki is > 3.98 µM (inactive) in [4]; > 2.51 µM (inactive) in [5]; 3.16 µM (active) in experiment [6]; 3.16 µM (active) in [7]; 3.16 µM (active) in experiment [8]; 1.26 µM (active) in [9]. Moreover, the Ki in experiment [10] was > 6.31 µM (inactive); in experiment [11] it was > 5.01 µM (inactive); in [12], 3.16 µM (active); at Aurora kinase A, 501 nM (active); in experiment [13] it was > 5.01 µM (inactive); in experiment [14], > 3.98 µM (inactive). The Ki is > 3.98 µM (inactive) at Activated CDC42 kinase 1; > 3.16 µM (inactive) in experiment [15]; 1.26 µM (active) in [16]; > 3.16 µM (inactive) in [17]; > 2.51 µM (inactive) in experiment [18]; > 2.51 µM (inactive) in [19]. In addition, the Ki in experiment [20] is > 2.51 µM (inactive); at Aurora kinase B it was 1 µM (active); in [21], 794 nM (active); in experiment [22], 1.26 µM (active); in experiment [23], 1 µM (active); in experiment [24], > 2.51 µM (inactive). In addition, the Ki in experiment [25] was > 3.16 µM (inactive); in [26] it was > 3.98 µM (inactive).
For the compound `Cc1ccc(-c2cc(-c3cc(Br)ccc3O)[nH]c(=O)c2C#N)s1`, the Ki in experiment [4] is > 3.98 µM (inactive); in [5] it was 0.794 µM (active); in [6], > 3.16 µM (inactive); in experiment [7], 0.794 µM (active); in experiment [8], 2 µM (active); in [9] it was 0.794 µM (active). For the same compound, the Ki in experiment [10] was > 6.31 µM (inactive); in experiment [11], > 5.01 µM (inactive); in experiment [12], 0.794 µM (active); at Aurora kinase A, 1580 nM (active); in experiment [13] it was > 5.01 µM (inactive); in experiment [14] it was > 3.98 µM (inactive). The Ki on Activated CDC42 kinase 1 was 2.51 µM (active); in experiment [15], 0.631 µM (active); in experiment [16] it was > 2.51 µM (inactive); in experiment [17], > 3.16 µM (inactive); in experiment [18], 0.794 µM (active); in [19], > 2.51 µM (inactive). Besides, the Ki was > 2.51 µM (inactive) in experiment [20]; 0.794 µM (active) at Aurora kinase B; 1260 nM (active) in [21]; 0.251 µM (active) in [22]; > 2.51 µM (inactive) in [23]; 0.398 µM (active) in experiment [24]. For the same compound, the Ki was > 3.16 µM (inactive) in experiment [25] and 1.58 µM (active) in [26].
As to `CCCC(=O)NC(c1cccs1)c1cc(Cl)c2cccnc2c1O` (stereo not drawn), the EC50 in experiment [1] was > 150 µM (inactive). Besides, the AC50 in experiment [2] was 1.47 µM (active); in experiment [3] it was 3.16 µM (active).
